One series relates to HCT-116. In words: cells. Conditions: Homo sapiens, HCT-116, 72 h.
A further series concerns HT-29. The series is described as follows: cells. Conditions: Homo sapiens, HT-29, 72 h.
Series [1] can be described thus: Aqueous solubility of compound at 25 degC. The note with it: water. The format is physicochemical.

Values after ≈ are worked out from the molar mass of the structure shown.

Description for HCT-116: Cytotoxicity against human HCT116 cells assessed as reduction in cell viability after 72 hrs by MTT assay
Description for HT-29: Cytotoxicity against human HT-29 cells assessed as reduction in cell viability after 72 hrs by MTT assay

For `C[C@@H]1C[C@@H]2OC(=O)[C@@H](CNCCCN(C)C)[C@H]2C[C@]2(C)[C@@H](O)CC[C@@H]12` (relative stereo), the IC50 – broadly, the concentration that gives 50% inhibition – in the series with HCT-116 was more than 30 µM.
`CC(C)NC[C@@H]1C(=O)O[C@H]2C[C@@H](C)[C@@H]3CC[C@H](O)[C@@]3(C)C[C@@H]21` (relative stereo) gave an IC50 in the series on HCT-116 of 17.8 µM.
Consider `C[C@@H]1C[C@@H]2OC(=O)[C@@H](CN3CCCCC3)[C@H]2C[C@]2(C)[C@@H](O)CC[C@@H]12` (relative stereo), for which the half-inhibitory concentration (IC50) came out at 8.39 µM in the series on HCT-116 and 3.86 µM in the series with HT-29.
In the case of `C[C@@H]1C[C@@H]2OC(=O)[C@@H](CN3CCNCC3)[C@H]2C[C@]2(C)[C@@H](O)CC[C@@H]12` (relative stereo), the IC50 in the series on HCT-116 was determined as 15.5 µM.
With `CCN(CC)C[C@@H]1C(=O)O[C@H]2C[C@@H](C)[C@@H]3CC[C@H](O)[C@@]3(C)C[C@@H]21` (relative stereo), the IC50 in the series on HCT-116 amounted to 5.46 µM; in the series with HT-29, 3.45 µM.
Take `CCCNC[C@@H]1C(=O)O[C@H]2C[C@@H](C)[C@@H]3CC[C@H](O)[C@@]3(C)C[C@@H]21` (relative stereo): the IC50 in the series with HCT-116 is more than 30 µM.
`C[C@@H]1C[C@@H]2OC(=O)[C@@H](CN3CCC(N(C)C)CC3)[C@H]2C[C@]2(C)[C@@H](O)CC[C@@H]12` (relative stereo): in the series with HCT-116, the IC50 came to 12.2 µM.
Turning to `C[C@@H]1C[C@@H]2OC(=O)[C@@H](CN(C)C)[C@H]2C[C@]2(C)[C@@H](O)CC[C@@H]12` (relative stereo), the IC50 in the series with HCT-116 is 5.18 µM; in the series with HT-29, 3.31 µM.
`CCCCNC[C@@H]1C(=O)O[C@H]2C[C@@H](C)[C@@H]3CC[C@H](O)[C@@]3(C)C[C@@H]21` (relative stereo) displayed an IC50 with HCT-116 of more than 30 µM.
On to `C[C@@H]1C[C@@H]2OC(=O)[C@@H](CN3CCOCC3)[C@H]2C[C@]2(C)[C@@H](O)CC[C@@H]12` (relative stereo), for which, in the series with HCT-116, the midpoint of inhibition, the IC50, lay at 18.7 µM.
`C[C@@H]1C[C@@H]2OC(=O)[C@@H](CNCCCO)[C@H]2C[C@]2(C)[C@@H](O)CC[C@@H]12` (relative stereo): the IC50 with HCT-116 was more than 30 µM.
Turning to `C=C1C(=O)O[C@H]2C[C@@H](C)[C@@H]3CC[C@H](O)[C@@]3(C)C[C@H]12` [PSEUDOGUAIANOLIDE], the IC50 came to 4.43 µM with HCT-116 and 3.37 µM in the series on HT-29. In series [1], the solubility (in general, the concentration that dissolves in the medium under given conditions) amounted to 200 µg/mL (≈ 799 µM).
In the case of `CC(O)CNC[C@@H]1C(=O)O[C@H]2C[C@@H](C)[C@@H]3CC[C@H](O)[C@@]3(C)C[C@@H]21` (mixture of isomers), the IC50 with HCT-116 was more than 30 µM.
In the series on HCT-116, `CCCCCCNC[C@@H]1C(=O)O[C@H]2C[C@@H](C)[C@@H]3CC[C@H](O)[C@@]3(C)C[C@@H]21` (relative stereo) displayed an IC50 of more than 30 µM.
For `CNC[C@@H]1C(=O)O[C@H]2C[C@@H](C)[C@@H]3CC[C@H](O)[C@@]3(C)C[C@@H]21` (relative stereo), in the series on HCT-116, the IC50 is more than 30 µM.
In turn, `C[C@@H]1C[C@@H]2OC(=O)[C@@H](CNCCN3CCCC3)[C@H]2C[C@]2(C)[C@@H](O)CC[C@@H]12` (relative stereo) yielded an IC50 in the series with HCT-116 of 22.8 µM.
For the compound `C[C@@H]1C[C@@H]2OC(=O)[C@@H](CN3CCC(O)CC3)[C@H]2C[C@]2(C)[C@@H](O)CC[C@@H]12` (relative stereo), the IC50 with HCT-116 stood at 5.36 µM; with HT-29, 3.19 µM.
Consider `C[C@@H]1C[C@@H]2OC(=O)[C@@H](CNCCN(C)C)[C@H]2C[C@]2(C)[C@@H](O)CC[C@@H]12` (mixture of isomers), for which the IC50 in the series on HCT-116 is more than 30 µM.
In the case of `CCN(C)C[C@@H]1C(=O)O[C@H]2C[C@@H](C)[C@@H]3CC[C@H](O)[C@@]3(C)C[C@@H]21` (relative stereo), the IC50 in the series on HCT-116 turned out to be 2.4 µM; with HT-29, 1.62 µM.
Turning to `C[C@@H]1C[C@@H]2OC(=O)[C@@H](CN3CCN(C)CC3)[C@H]2C[C@]2(C)[C@@H](O)CC[C@@H]12` (relative stereo), the IC50 in the series on HCT-116 was more than 30 µM.
Turning to `C=C1C(=O)O[C@@H]2C3O[C@]3(C)CC/C=C(\C)CC[C@@H]12` (stereo not given in full), the results for the IC50 with HCT-116 and in the series on HT-29 were 4.94 µM and 3.38 µM, respectively.
Take `COC(CNC[C@@H]1C(=O)O[C@H]2C[C@@H](C)[C@@H]3CC[C@H](O)[C@@]3(C)C[C@@H]21)OC` (relative stereo): it took 27.5 µM to reach half-maximal inhibition with HCT-116 (IC50).

Values taken from ChEMBL document CHEMBL4422667, “Synthetic derivatives of the natural product 13-amino 2-desoxy-4-epi-pulchellin inhibit STAT3 signaling and induce G2/M arrest and death of colon cancer cells” (Bioorg Med Chem Lett, 2019).
